# In PubChem BioAssay (NCI):
#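 Compound exposure: 48 hours, 5 concentrations, 96-well plates. GI50 = concentration required for 50% inhibition of growth. TGI: concentration producing complete growth inhibition.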
# What was measured:
# Test in all cases: NCI anticancer screen, dose series, 48 h
# MCF7 breast = system: MCF7 breast
# MDA-N = system: MDA-N
# HCT-116 colon = system: HCT-116 colon
# SF-268 CNS = system: SF-268 CNS
# RXF 393 renal = system: RXF 393 renal
# BT-549 breast = system: BT-549 breast
# A549 NSCLC = system: A549 NSCLC
# SK-MEL-2 melanoma = system: SK-MEL-2 melanoma
# SW-620 colon = system: SW-620 colon
# HOP-92 NSCLC = system: HOP-92 NSCLC
# OVCAR-4 ovarian = system: OVCAR-4 ovarian
SMILES,TGI (MCF7 breast) [µM],TGI (MDA-N) [µM],TGI (HCT-116 colon) [µM],TGI (SF-268 CNS) [µM],TGI (RXF 393 renal) [µM],TGI (BT-549 breast) [µM],TGI (A549 NSCLC) [µM],TGI (SK-MEL-2 melanoma) [µM],TGI (SW-620 colon) [µM],TGI (HOP-92 NSCLC) [µM],TGI (OVCAR-4 ovarian) [µM],GI50 (MCF7 breast) [µM],GI50 (SK-MEL-2 melanoma) [µM],GI50 (SW-620 colon) [µM],GI50 (HCT-116 colon) [µM],GI50 (HOP-92 NSCLC) [µM],GI50 (A549 NSCLC) [µM],GI50 (OVCAR-4 ovarian) [µM],GI50 (SF-268 CNS) [µM],GI50 (RXF 393 renal) [µM]
CCOC(=O)c1cn2c(n1)sc1cccc(C)c12,> 100,> 100,> 100,> 100,> 100,> 100,> 100,,,,,,,,,,,,,
O=C1CSC(c2ccc(Cl)cc2)N1c1ccc(Oc2ccc(Cl)cc2)c(Cl)c1 (configuration not stated),44.1,30.4,29.8,24,,29,34.5,33.9,45,30.3,28.1,,,,,,,,,
COC(CCC[N+](C)(C)C)CC[N+](C)(C)C (configuration not stated),> 100,> 100,> 100,> 100,> 100,> 100,> 100,,> 100,,> 100,,,,,,,,,
COc1cc(C(=O)N(C(=S)OCc2ccccn2)c2ccccc2)cc(OC)c1OC,> 100,> 100,> 100,> 100,> 100,> 100,,> 100,> 100,,,,,,,,,,,
Cc1ccc(C(=O)O)cc1S(=O)(=O)Nn1cnc2ccc(S(=O)(=O)Nc3ccccc3C(=O)O)cc2c1=O,> 100,> 100,> 100,> 100,,> 100,> 100,> 100,> 100,> 100,> 100,,,,,,,,,
CCC(C(=O)O)c1ccc(OC)cc1 (configuration not stated),,,> 100,> 100,> 100,,> 100,> 100,> 100,> 100,> 100,,,,,,,,,
Nc1nc(Cl)cc(NCC2(CO)CC(=O)C2)n1,> 100,,> 100,> 100,> 100,> 100,> 100,> 100,> 100,> 100,> 100,,,,,,,,,
Cc1c(O)c(O)cc[n+]1C1OC(CO)C(O)C1O (configuration not stated),,,> 100,> 100,> 100,,> 100,> 100,> 100,> 100,> 100,,,,,,,,,
C=C1C(=O)O[C@@H]2C(=O)[C@@H](C)CCC/C(C)=C/CC[C@@]3(C)O[C@@H]3C[C@@H]12,> 100,> 100,96.1,,17.1,,> 100,> 100,43.4,31.2,> 100,,,,,,,,,
CC1CCC(n2c3cnccc3c3cnc(Nc4ccc5c(n4)CCN(C(=O)CO)C5)nc32)CC1 (configuration not stated),> 100,,> 100,,,,> 100,> 100,> 100,> 100,,0.127,> 100,0.278,0.462,> 100,0.882,,,
C[C@]12CCC(O)CC1=CC[C@@H]1[C@@H]2CC[C@]2(C)C(=O)[C@H](n3ccnc3)C[C@@H]12 (some centres not stated),> 100,> 100,> 100,> 100,> 100,,> 100,> 100,> 100,> 100,> 100,,,,,,,,,
O=C(NC(=O)c1ccccc1[N+](=O)[O-])Nc1ccc(Oc2ncc(Br)cn2)c(Cl)c1,,< 0.0159,,,0.0321,,> 100,,,,,,0.321,< 0.0187,,,< 0.0248,7.58,,
C1=C2/CC[C@H](Sc3ccccc3)C2C2(CCCCC/1)OCCO2 (some centres not stated),,,37.1,> 100,43.4,,,32.7,> 100,29.6,,,,,,,,,,
CCCCC#C[I+]c1ccccc1,,,30,39.7,36.9,,33.8,34.1,,24.1,28.9,,,,,,,,,
Nc1nc(SCCc2ccccc2)c2[nH]cnc2n1,,> 100,> 100,> 100,> 100,> 100,> 100,82.9,> 100,> 100,> 100,,,,,,,,,
O=c1c2cc([N+](=O)[O-])cnc2sn1-c1ccc([N+](=O)[O-])cc1,> 100,> 100,83.9,67.6,,93.9,> 100,88.1,> 100,,85.7,,,,,,,,,
Cc1ccc(-c2n[nH]c(=O)n2N2C(=O)c3ccccc3C2=O)cc1,> 100,> 100,> 100,> 100,> 100,> 100,> 100,> 100,> 100,,,,,,,,,,,
COc1cc2c(c(OC)c1OC)C(=O)[C@@H]1[C@H]2N1C(N)=O,> 100,> 100,> 100,> 100,> 100,,> 100,,> 100,,,,,,,,,,,
C[C@@H]1CC[C@]2(C(=O)O)CC[C@]3(C)C(=CC[C@@H]4[C@@]5(C)CC[C@H](O)C(C)(C)[C@@H]5CC[C@]43C)[C@@H]2[C@]1(C)O,35.7,,24.6,34.2,,28.2,33.3,31.8,42.1,20.7,30.5,,,,,,,,,
CCOC(=O)C1(C/C=C/CBr)Cc2ccccc2C1=O (configuration not stated),8.73,6.37,15.8,10,6.32,8.86,> 35.7,6.13,7.06,,6.02,,,,,,,,,
CN1CCc2cc(N)cc3c2C1Cc1ccc(O)c(O)c1-3 (configuration not stated),,> 100,> 100,> 100,> 100,> 100,> 100,> 100,> 100,> 100,> 100,,,,,,,,,
O=C1CCCSC(=O)N1Cc1ccccc1,> 100,> 100,> 100,> 100,> 100,,> 100,> 100,> 100,> 100,> 100,,,,,,,,,
COC(=O)c1c(C)cccc1C1CN=NC12Cc1ccc(C)cc1C2=O (configuration not stated),> 100,> 100,74,> 100,> 100,,> 100,,> 100,> 100,> 100,,,,,,,,,
CC(C)(C)OC(=O)N[C@H]1CCN(C2CCCCC2)C1=O,> 100,> 100,> 100,> 100,,,> 100,> 100,> 100,> 100,,,,,,,,,,

SMILES,TGI (MCF7 breast) [µM],TGI (MDA-N) [µM],TGI (HCT-116 colon) [µM],TGI (SF-268 CNS) [µM],TGI (RXF 393 renal) [µM],TGI (BT-549 breast) [µM],TGI (A549 NSCLC) [µM],TGI (SK-MEL-2 melanoma) [µM],TGI (SW-620 colon) [µM],TGI (HOP-92 NSCLC) [µM],TGI (OVCAR-4 ovarian) [µM],GI50 (MCF7 breast) [µM],GI50 (SK-MEL-2 melanoma) [µM],GI50 (SW-620 colon) [µM],GI50 (HCT-116 colon) [µM],GI50 (HOP-92 NSCLC) [µM],GI50 (A549 NSCLC) [µM],GI50 (OVCAR-4 ovarian) [µM],GI50 (SF-268 CNS) [µM],GI50 (RXF 393 renal) [µM]
COc1cccc(C(=O)O[C@H]2[C@@H]3[C@]4(OC(C)=O)CO[C@@H]4C[C@H](O)[C@@]3(C)C(=O)[C@H](OC(C)=O)C3=C(C)[C@@H](OC(=O)[C@H](O)[C@@H](NC(=O)OC(C)(C)C)c4ccco4)C[C@]2(O)C3(C)C)c1,> 37.5,0.0382,9.93,> 37.5,> 9.16,> 34.1,> 37.5,16.9,> 37.5,,> 37.5,,,,,,,,,
N#Cc1c(-c2ccccc2)/c(=C\Nc2cccc(C(F)(F)F)c2)c(=O)n2c1nc1ccccc12,> 100,91.4,> 100,> 100,78.1,> 100,> 100,> 100,> 100,,> 100,,,,,,,,,
COc1ccc(COCCOCc2nc(C#N)c(N)o2)cc1,> 100,,> 100,> 100,> 100,> 100,> 100,> 100,> 100,> 100,> 100,,,,,,,,,
S=C1Nc2ccccc2SC1c1ccccc1 (configuration not stated),> 100,> 100,> 100,> 100,92.5,> 100,> 100,,,,> 100,,,,,,,,,
COC(=O)c1ccccc1CC1Cc2ccc3c(c2C1=O)CCCC3 (configuration not stated),> 100,> 100,> 100,> 100,,> 100,> 100,> 76.3,> 100,,> 79.4,,,,,,,,,
Cc1cn2c(/C=N/N=C(N)N)c(-c3cccc([N+](=O)[O-])c3)nc2s1,2.12,,> 100,2.58,2.5,3.3,4.94,,2.7,3.35,1.07,,,,,,,,,
CN1CCN(C2=NCCO2)CC1,> 100,> 100,> 100,> 100,> 100,,> 100,> 100,> 100,,> 100,,,,,,,,,
c1ccc(N=c2sc3ccccc3nc2Nc2ccccc2)cc1,,,> 100,> 100,> 100,,> 100,> 100,> 100,> 100,> 100,,,,,,,,,
CCOC(=O)c1csc(NC(=O)CN2CCOCC2)n1,> 100,> 100,,> 100,> 100,,> 100,> 100,> 100,> 100,> 100,,,,,,,,,
O=C1/C(=C/c2ccccc2)N=C2Sc3c(nc[nH]c3=O)N12,> 100,,> 100,> 100,> 100,,> 100,> 100,> 100,> 100,> 100,,,,,,,,,
N#Cc1c(N2CCCC2)ncn(-c2ccccc2)c1=O,,> 100,> 100,> 100,> 100,,> 100,> 100,> 100,> 100,> 100,,,,,,,,,
N#CC1(C#N)N[C@@H](c2ccsc2)[C@H]2C(=O)N(c3ccccc3)C(=O)[C@H]21,,> 100,> 100,> 100,> 100,> 100,> 100,> 100,> 100,> 100,,,,,,,,,,
O=C(CCN1CCCCC1)C(=Cc1ccccc1)C(=O)CCN1CCCCC1,> 100,,> 100,> 100,34.3,,> 100,> 100,,> 96.8,> 100,,,1.76,,,,,5.88,16.9
Cc1ccc([N+](=O)[O-])cc1NC1=NCCO1,> 100,> 100,> 100,> 100,> 100,,> 100,> 100,> 100,,> 100,,,,,,,,,
O=c1ccc(-c2ccccc2)n[nH]1,,> 100,> 100,> 100,> 100,> 100,> 100,> 100,> 100,> 100,> 100,,,,,,,,,
Cc1cc(Cc2cc(C)c(N)cc2N)c(N)cc1N,> 100,> 100,> 100,> 100,> 100,> 100,> 100,> 100,> 100,,> 100,,,,,,,,,
O=[N+]([O-])c1ccc2c(c1)c(OCc1ccccc1)nn2Cc1ccccc1,> 100,> 100,,> 100,> 100,> 100,> 100,> 100,> 100,,,,,,,,,,,
C#CCNC(CS)C(=O)O (configuration not stated),,,> 100,> 100,> 100,> 100,> 100,> 100,> 100,> 100,> 100,,,,,,,,,
O=C1CCCc2cc3c(cc21)CC1(Cc2ccccc2C1)C3,61.2,,13.6,,82.5,,43.3,> 100,,53,63.9,,,,,,,,,
Cc1ccc(Cl)c2[nH]c(-c3ccccc3)cc(=O)c12,34.6,> 100,> 100,79.7,> 100,,72,> 100,> 100,,> 100,,,,,,,,,
COc1ccc2c(c1)/C(=C/CCN(C)C)c1ccccc1S2,,> 100,> 100,> 100,> 100,,> 100,,> 100,> 100,,,,,,,,,,
NS(=O)(=O)c1ccc2c(c1)OCCOCCOCCOCCO2,> 100,,> 100,> 100,,> 100,> 100,,> 100,,,,,,,,,,,
CCOC(=O)/C=C/CC(C)(C)CCOC(C)=O,> 10,> 10,> 10,> 10,> 10,,> 10,> 10,> 10,> 10,> 10,,,,,,,,,
